# From patent publication US7498406B2, “Substantially cell membrane impermeable compound and use thereof” (priority 1999, dated 2009)
# pIC50: −log10 of the molar value. Entries after “also recorded” stand apart in the source; their conditions may differ.
# Tests used:
# [1] = tested on: BAE; assay: Viability of cultured cells, 72 hr; type: cell-based, bovine
# Procedure: BCE (Folkman et al. 1979), BAE, BxPC-3 (ATCC, Bethesda, Md.), HT1080 (Jiang et al., 1999), 3T3 (ATCC, Bethesda, Md.) and BVSM (Hogg et al., 1997) cells were harvested and cultured as indicated. Cells (0.5 mL of 30,000 or 100,000 cells per mL) were seeded into gelatinized 24-well culture plates (Corning Costar, Corning, N.Y.) in Dulbecco's Modified Eagle's Medium (DMEM, JHR Bioscience, Lenexa, Kans.) containing 10% fetal calf serum (FCS, Intergen Comp., Purchase, N.Y.) and 1% Glutamine Pen-Strep (GPS, Irvine Scientific, Santa Ana, Va.) and allowed to attach for 24 hr in 10% CO2 at 37° C. The media was then replaced with DMEM and 1% GPS containing 0 to 1 mM GSAO or GSAA and either 5% bovine calf serum (BCS, HyClone, Logan, Utah) and 1 ng per mL FGF-2 (Genzyme, Cambridge, Mass.) or 5% BCS and 10 ng per mL VEGF (Genzyme, Cambridge, Mass.) for BCE cells, 5% or 10% BCS for BAE cells, 5% BCS for BVSM cells, and 5% FCS for BxPC-3, HT1080 and 3T3 cells. Cells were cultured for 0 to 72 hr in 10% CO2 at 37° C. then dispersed in trypsin/EDTA (GibcoBRL, Granc Island, N.Y.), resuspended in Coulter balanced electrolyte solution and counted with a Z1 Coulter counter (Coulter Corp., Miami, Fla.) in all experiments there were two control wells containing DMEM with 1% GPS and either 5% BCS for BCE cells, 2% BCS for BAE and BVSM cells, or 2% FCS for BxPC-3, HT1080 and 3T3 cells. […]
# [2] = tested on: 3T3; assay: Viability of cultured cells, 72 hr; type: cell-based, murine; settings: 0 to 1 mM
# Procedure: (§1) FIG. 19. Effect of GSAO on proliferation of non-endothelial cells. 15,000 BxPC-3 (part A), HT1080 (part B), 3T3 (part C) or BVSM (part D) cells per well were seeded into gelatinised 24-well culture plates and allowed to attach for 24 hr. The media was then replaced with DMEM containing 0 to 1 mM GSAO or GSAA and either 5% BCS (part D) or 5% FCS (parts A, B and C). Cells were cultured for 72 hr and then dispersed and counted. The dotted lines indicate the cell number in control wells containing DMEM and 2% BCS (part D) or 2% FCS (parts A, B and C) which represented no to limited proliferation. The data points and errors represent the mean and range of duplicate wells.
# (§2) BCE (Folkman et al. 1979), BAE, BxPC-3 (ATCC, Bethesda, Md.), HT1080 (Jiang et al., 1999), 3T3 (ATCC, Bethesda, Md.) and BVSM (Hogg et al., 1997) cells were harvested and cultured as indicated. […] Cells were cultured for 0 to 72 hr in 10% CO2 at 37° C. then dispersed in trypsin/EDTA (GibcoBRL, Granc Island, N.Y.), resuspended in Coulter balanced electrolyte solution and counted with a Z1 Coulter counter (Coulter Corp., Miami, Fla.) in all experiments there were two control wells containing DMEM with 1% GPS and either 5% BCS for BCE cells, 2% BCS for BAE and BVSM cells, or 2% FCS for BxPC-3, HT1080 and 3T3 cells. […]
# [3] = tested on: Lewis lung tumours; assay: Tumour growth in mice, subcutaneous administration; type: in vivo, C57Bl6/J mice; settings: 10 mg per kg per day; for inhibition of the rate of Lewis lung tumour growth: subcutaneous
# Procedure: FIG. 25. Inhibition of human fibrosarcoma and murine Lewis lung tumour growth following systemic administration of GSAO. HT1080 or Lewis lung tumours were established in the proximal midline of female 7 to 9 week old SCID or C57Bl6/J mice, respectively. When the tumours were ˜0.1 cm^3 in volume the mice were randomised into two groups (n=5) and treated with either GSAA or GSAO at a dose of 10 mg per kg per day in 0.2 mL of PBS containing 100 mM glycine. The compounds were administered subcutaneously at a site distant from the tumour. Tumour volume and animal weight was measured every 3 days. The GSAO/GSAA HT1080 tumour volume ratio at day 17 of treatment was 0.29 (part A). The GSAO/GSAA Lewis lung tumour volume ratio at day 12 of treatment was 0.29 (part B). The data points and errors represent the mean and SE of the tumour volumes.
# Female 7 to 9 week old SCID or C57Bl6/J mice were used (Massachusetts General Hospital, Boston, Mass.). Mice were held in groups of 3 to 5 at a 12 hour day and night cycle and were fed with animal chow and water ad libidum. SCID mice were anaesthetised by inhalation of isoflurane, the dorsal skin shaved and cleaned with ethanol, and a suspension of 2.5×10^6 BxPC-3 or HT1080 cells in 0.2 mL of DMEM was injected subcutaneously in the proximal midline. C57Bl6/J mice with Lewis lung carcinomas of 0.6-1.2 cm^3 volumes were sacrificed and the skin overlying the tumour was cleaned with betadine and ethanol. Tumour tissue was excised under aseptic conditions and a suspension of tumour cells in 0.9% saline was made by passage of tumour tissue through a sieve and a series of sequentially smaller 22- to 30-gauge hypodermic needles. C57Bl6/J mice were anaesthetised and prepared as for SCID mice and a suspension of Lewis lung carcinoma cells in 0.2 mL of saline was injected subcutaneously in the proximal midline. […] The tumours were measured in two diameters and tumour volume was calculated using the relationship, tumour volume=a×b^2×0.52, where a is the longest and b the shortest diameters in cm. […] Tumour volume and animal weight was measured every 3 days. […]
# [4] = tested on: BxPC-3 tumours; assay: Tumour growth, oral administration in water; type: in vivo, SCID mice; settings: ~10 mg per kg per day in water
# Procedure: FIG. 28. Inhibition of human pancreatic carcinoma and murine Lewis lung tumour growth by oral administration of GSAO. BxPC-3 or Lewis lung tumours were established in the proximal midline of female 7 to 9 week old SCID or C57Bl6/J mice, respectively, SCID mice bearing ˜0.5 g BxPC-3 tumours or C57Bl6/J mice bearing 0.1 g Lewis lung tumours were randomised into two groups (n=2 for BxPC-3 and n=3 for Lewis lung) and treated with either GSAA or GSAO (0.05 mg per mL) in their water. Mice drink ˜5 mL of water per day and therefore consumed ˜10 mg GSAO or GSM per kg per day. The water contained 100 mM glycine to minimise oxidation of GSAO. Tumour volume and animal weight was measured every 3 days. The data points and errors represent the mean and SE of the tumour volumes.
# SCID mice bearing subcutaneous human pancreatic carcinoma tumours or C57Bl6/J mice bearing subcutaneous murine Lewis lung tumours were fed either ˜10 mg per kg per day GSAO or GSAA in their water.
# [5] = tested on: 3T3; assay: Proliferation of cultured cells, 72 hr; type: cell-based, murine; settings: 5% FCS, 0 to 1 mM
# Procedure: as §1, §2
SMILES,effect on viability of BAE cells ([1]; not shown),Viability IC50 ([2]; 5% FCS),inhibition of the rate of Lewis lung tumour growth [3],growth of pancreatic tumours [4],Proliferation IC50 [5],"pIC50 ([1]; Bos taurus, 72 h, 10% BCS, >90% confluent)","pIC50 ([2]; Mus musculus, NIH3T3, 5% FCS)",GSAO/GSAA Lewis lung tumour volume ratio ([3]; day 12 of treatment)
"N[C@@H](CCC(=O)N[C@@H](CSCC(=O)Nc1ccc([As](=O)(O)O)cc1)C(=O)NCC(=O)O)C(=O)O [GSAA, 4-(N-(S-glutathionylacetyl)amino)phenylarsonic acid, reference compound]",did not effect either proliferation or viability,no significant effect,no effect,no significant effect,no significant effect,–,–,–
"NC(CCC(=O)NC(CSCC(=O)Nc1ccc([As]=O)cc1)C(=O)NCC(=O)O)C(=O)O (centres unmarked) [GSAO, 4-(N-(S-glutathionylacetyl)amino)-phenylarsenoxide]",–,–,~70%,stopped growing,did not affect the proliferation; also recorded: No effect,~5.00,~4.40,0.29
